Reference: patent US9695155B2, “Herbicidal substituted pyrimidinyloxy benzene compounds” (E. I. DU PONT DE NEMOURS AND COMPANY, priority 2013, dated 2017)

Assays:
barnyardgrass [1] = assay: Test A preemergence; format: in vivo, Echinochloa crus-galli; conditions: for Plant response rating, Barnyardgrass: 125 g ai/ha, 0 to 100 scale where 0 is no effect and 100 is complete control; for Barnyardgrass plant response rating: 500 g ai/ha, 0 to 100 scale, 0 no effect, 100 complete control, approx. 10 days
In short: (§1)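 Visual 0–100 rating (100 = complete control) taken about 10 d post-treatment relative to untreated checks. Preemergence: directed soil spray on sown loam/sand pots. Postemergence: seedlings 2–10 cm, 1–2 leaf. Non-phytotoxic solvent formulation with surfactant.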

kochia [2] = assay: Test A preemergence; format: in vivo, Kochia scoparia; conditions: for Plant response rating, Kochia: 125 g ai/ha, 0 to 100 scale where 0 is no effect and 100 is complete control; for Kochia plant response rating: 500 g ai/ha, 0 to 100 scale, 0 no effect, 100 complete control, approx. 10 days
In short: as §1

ragweed [3] = assay: Test A preemergence; format: in vivo, Ambrosia elatior; conditions: for Plant response rating, Ragweed: 125 g ai/ha, 0 to 100 scale where 0 is no effect and 100 is complete control; for Ragweed plant response rating: 500 g ai/ha, 0 to 100 scale, 0 no effect, 100 complete control, approx. 10 days
In short: as §1

Italian ryegrass [4] = assay: Test A preemergence; format: in vivo, Lolium multiflorum; conditions: for Plant response rating, Ryegrass, Italian: 125 g ai/ha, 0 to 100 scale where 0 is no effect and 100 is complete control; for Ryegrass, Italian plant response rating: 500 g ai/ha, 0 to 100 scale, 0 no effect, 100 complete control, approx. 10 days
From the text: (§2) Seeds of plant species selected from barnyardgrass (Echinochloa crus-galli), kochia (Kochia scoparia), ragweed (common ragweed, Ambrosia elatior), Italian ryegrass (Lolium multiflorum), large (Lg) crabgrass (Digitaria sanguinalis), giant foxtail (Setaria faberii), morningglory (Ipomoea spp.), pigweed (Amaranthus retroflexus), velvetleaf (Abutilon theophrasti), wheat (Triticum aestivum), and corn (Zea mays) were planted into a blend of loam soil and sand and treated preemergence with a directed soil spray using test chemicals formulated in a non-phytotoxic solvent mixture which included a surfactant.
(§3) At the same time, plants selected from these crop and weed species and also blackgrass (Alopecurus myosuroides), and galium (catchweed bedstraw, Galium aparine) were planted in pots containing the same blend of loam soil and sand and treated with postemergence applications of test chemicals formulated in the same manner. Plants ranged in height from 2 to 10 cm and were in the one- to two-leaf stage for the postemergence treatment. Treated plants and untreated controls were maintained in a greenhouse for approximately 10 days, after which time all treated plants were compared to untreated controls and visually evaluated for injury. Plant response ratings, summarized in Table A, are based on a 0 to 100 scale where 0 is no effect and 100 is complete control. A dash (-) response means no test result.

giant foxtail [5] = assay: Test A preemergence; format: in vivo, Setaria faberii; conditions: for Plant response rating, Foxtail, Giant: 125 g ai/ha, 0 to 100 scale where 0 is no effect and 100 is complete control; for Foxtail, Giant plant response rating: 500 g ai/ha, 0 to 100 scale, 0 no effect, 100 complete control, approx. 10 days
In short: as §1

pigweed [6] = assay: Test A preemergence; format: in vivo, Amaranthus retroflexus; conditions: for Plant response rating, Pigweed: 125 g ai/ha, 0 to 100 scale where 0 is no effect and 100 is complete control; for Pigweed plant response rating: 500 g ai/ha, 0 to 100 scale, 0 no effect, 100 complete control, approx. 10 days
In short: as §1

barnyardgrass [7] = assay: Test A postemergence; format: in vivo, Echinochloa crus-galli
In short: as §1

kochia [8] = assay: Test A postemergence; format: in vivo, Kochia scoparia; conditions: 0 to 100 scale where 0 is no effect and 100 is complete control
In short: as §1

ragweed [9] = assay: Test A postemergence; format: in vivo, Ambrosia elatior; conditions: 0 to 100 scale where 0 is no effect and 100 is complete control
From the text: as §2, §3

Italian ryegrass [10] = assay: Test A postemergence; format: in vivo, Lolium multiflorum; conditions: 0 to 100 scale where 0 is no effect and 100 is complete control
In short: as §1

giant foxtail [11] = assay: Test A postemergence; format: in vivo, Setaria faberii; conditions: 0 to 100 scale where 0 is no effect and 100 is complete control
In short: as §1

pigweed [12] = assay: Test A postemergence; format: in vivo, Amaranthus retroflexus; conditions: 0 to 100 scale where 0 is no effect and 100 is complete control
In short: as §1

wheat = assay: Test A postemergence; format: in vivo, Triticum aestivum; conditions: 0 to 100 scale where 0 is no effect and 100 is complete control
In short: as §1

corn = assay: Test A postemergence; format: in vivo, Zea mays
In short: as §1

blackgrass = assay: Test A postemergence; format: in vivo, Alopecurus myosuroides
From the text: as §2, §3

galium = assay: Test A postemergence; format: in vivo, Galium aparine; conditions: 0 to 100 scale where 0 is no effect and 100 is complete control
From the text: as §2, §3

rice = assay: Test B flooded paddy test; format: in vivo, Oryza sativa; conditions: Flood, 250 g ai/ha; 0 to 100 scale where 0 is no effect and 100 is complete control
In short: (§4)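 Post-emergence paddy-water application at the 2-leaf stage, with 3 cm flood kept for the whole test. Response was judged visually relative to controls after 13 to 15 greenhouse days, 0 indicating no effect and 100 complete control.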

sedge, umbrella = assay: Test B flooded paddy test; format: in vivo, Cyperus difformis; conditions: Flood, 250 g ai/ha; 0 to 100 scale where 0 is no effect and 100 is complete control
In short: as §4

Heteranthera limosa = assay: Test B flooded paddy test; format: in vivo; conditions: Flood, 250 g ai/ha; 0 to 100 scale where 0 is no effect and 100 is complete control
In short: as §4

barnyardgrass [13] = assay: Test B flooded paddy test; format: in vivo, Echinochloa crus-galli; conditions: Flood, 250 g ai/ha; 0 to 100 scale where 0 is no effect and 100 is complete control
In short: as §4

[14] = 125 g ai/ha, 0 to 100 scale where 0 is no effect and 100 is complete control
[15] = 500 g ai/ha, 0 to 100 scale, 0 no effect, 100 complete control
[16] = 500 g ai/ha, 0 to 100 scale where 0 is no effect and 100 is complete control

Structure (SMILES)	Plant response rating, Barnyardgrass (barnyardgrass [1])	Barnyardgrass plant response rating (barnyardgrass [1])	Plant response rating, Kochia (kochia [2])	Kochia plant response rating (kochia [2])	Plant response rating, Ragweed (ragweed [3])	Ragweed plant response rating (ragweed [3])	Plant response rating, Ryegrass, Italian (Italian ryegrass [4])	Ryegrass, Italian plant response rating (Italian ryegrass [4])	Plant response rating, Foxtail, Giant (giant foxtail [5])	Foxtail, Giant plant response rating (giant foxtail [5])	Plant response rating, Pigweed (pigweed [6])	Pigweed plant response rating (pigweed [6])	Plant response rating, Barnyardgrass (barnyardgrass [7]; [14])	Plant response rating, Kochia (kochia [8]; 125 g ai/ha)	Plant response rating, Kochia (kochia [8]; 500 g ai/ha)	Plant response rating, Ragweed (ragweed [9]; 125 g ai/ha)	Plant response rating, Ragweed (ragweed [9]; 500 g ai/ha)	Plant response rating, Ryegrass, Italian (Italian ryegrass [10]; 125 g ai/ha)	Plant response rating, Ryegrass, Italian (Italian ryegrass [10]; 500 g ai/ha)	Plant response rating, Foxtail, Giant (giant foxtail [11]; 125 g ai/ha)	other results
CC(C)(C)c1cnn(-c2c(C#N)cccc2Oc2ncc(Cl)cn2)c1 [Compound 82]	0	30	0	0	0	0	0	0	10	70	0	60	0	0	10	0	10	0	20	0	Plant response rating, Barnyardgrass (barnyardgrass [7]; [15]): 20; Plant response rating, Foxtail, Giant (giant foxtail [11]; 500 g ai/ha): 20; Plant response rating, Pigweed (pigweed [12]; 125 g ai/ha): 10; Plant response rating, Pigweed (pigweed [12]; 500 g ai/ha): 40; Plant response rating, Wheat (wheat; 125 g ai/ha): 0; Plant response rating, Wheat (wheat; 500 g ai/ha): 30; Plant response rating, Corn (corn; [14]): 0; Plant response rating, Corn (corn; [15]): 10; Plant response rating, Blackgrass (blackgrass; [14]): 10; Plant response rating, Blackgrass (blackgrass; [15]): 50; Plant response rating, Galium (galium; 125 g ai/ha): 10; Plant response rating, Galium (galium; 500 g ai/ha): 20; Plant response rating, Rice (rice): 0; Plant response rating, Sedge, Umbrella (sedge, umbrella): 0; Plant response rating, Ducksalad (Heteranthera limosa): 30; Plant response rating, Barnyardgrass (barnyardgrass [13]): 0
N#Cc1cnn(-c2c(C#N)cccc2Oc2ncc(I)cn2)c1 [Compound 91]	0	0	30	90	0	0	0	30	10	30	70	90	0	10	30	10	30	0	0	10	Plant response rating, Barnyardgrass (barnyardgrass [7]; [16]): 10; Plant response rating, Foxtail, Giant (giant foxtail [11]; 500 g ai/ha): 10; Plant response rating, Pigweed (pigweed [12]; 125 g ai/ha): 10; Plant response rating, Pigweed (pigweed [12]; 500 g ai/ha): 50; Plant response rating, Wheat (wheat; 125 g ai/ha): 0; Plant response rating, Wheat (wheat; 500 g ai/ha): 10; Plant response rating, Corn (corn; [14]): 0; Plant response rating, Corn (corn; [16]): 0; Plant response rating, Blackgrass (blackgrass; [14]): 0; Plant response rating, Blackgrass (blackgrass; [16]): 30; Plant response rating, Galium (galium; 125 g ai/ha): 40; Plant response rating, Galium (galium; 500 g ai/ha): 70; Plant response rating, Rice (rice): 0; Plant response rating, Sedge, Umbrella (sedge, umbrella): 0; Plant response rating, Ducksalad (Heteranthera limosa): 0; Plant response rating, Barnyardgrass (barnyardgrass [13]): 0
